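Exposure lasted 48 hours, with cells grown in 96-well plates and compounds tested at five concentrations. GI50 = concentration required for 50% inhibition of growth. TGI is the concentration that stops growth completely.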
Experiments:
Assay in all cases: NCI tumour cell line growth inhibition, 48 h
A498 renal = test system: A498 renal
A549 NSCLC = test system: A549 NSCLC
CAKI-1 renal = test system: CAKI-1 renal
CCRF-CEM leukemia = test system: CCRF-CEM leukemia
COLO 205 colon = test system: COLO 205 colon
DLD-1 colon = test system: DLD-1 colon
DMS 114 small cell lung = test system: DMS 114 small cell lung
DMS 273 small cell lung = test system: DMS 273 small cell lung
EKVX NSCLC = test system: EKVX NSCLC
HCC-2998 colon = test system: HCC-2998 colon
HCT-116 colon = test system: HCT-116 colon
HCT-15 colon = test system: HCT-15 colon
HL-60(TB) leukemia = test system: HL-60(TB) leukemia
HOP-18 NSCLC = test system: HOP-18 NSCLC
HOP-62 NSCLC = test system: HOP-62 NSCLC
HOP-92 NSCLC = test system: HOP-92 NSCLC
HT29 colon = test system: HT29 colon
IGROV1 ovarian = test system: IGROV1 ovarian
K-562 leukemia = test system: K-562 leukemia
KM12 colon = test system: KM12 colon
KM20L2 colon = test system: KM20L2 colon
LOX IMVI melanoma = test system: LOX IMVI melanoma
M19-MEL melanoma = test system: M19-MEL melanoma
MALME-3M melanoma = test system: MALME-3M melanoma
MCF7 breast = test system: MCF7 breast
MOLT-4 leukemia = test system: MOLT-4 leukemia
NCI-H226 lung = test system: NCI-H226 lung
NCI-H23 lung = test system: NCI-H23 lung
NCI-H460 lung = test system: NCI-H460 lung
NCI-H522 lung = test system: NCI-H522 lung
NCI/ADR-RES ovarian = test system: NCI/ADR-RES ovarian
OVCAR-3 ovarian = test system: OVCAR-3 ovarian
OVCAR-4 ovarian = test system: OVCAR-4 ovarian
OVCAR-5 ovarian = test system: OVCAR-5 ovarian
OVCAR-8 ovarian = test system: OVCAR-8 ovarian
P388 leukemia = test system: P388 leukemia
P388/ADR leukemia = test system: P388/ADR leukemia
RPMI-8226 leukemia = test system: RPMI-8226 leukemia
RXF 393 renal = test system: RXF 393 renal
SF-268 CNS = test system: SF-268 CNS
SF-295 CNS = test system: SF-295 CNS
SF-539 CNS = test system: SF-539 CNS
SK-MEL-2 melanoma = test system: SK-MEL-2 melanoma
SK-MEL-28 melanoma = test system: SK-MEL-28 melanoma
SK-MEL-5 melanoma = test system: SK-MEL-5 melanoma
SK-OV-3 ovarian = test system: SK-OV-3 ovarian
SN12C renal = test system: SN12C renal
SN12K1 renal = test system: SN12K1 renal
SNB-19 CNS = test system: SNB-19 CNS
SNB-75 CNS = test system: SNB-75 CNS
SNB-78 CNS = test system: SNB-78 CNS
SW-620 colon = test system: SW-620 colon
U251 CNS = test system: U251 CNS
UACC-257 melanoma = test system: UACC-257 melanoma
UACC-62 melanoma = test system: UACC-62 melanoma
UO-31 renal = test system: UO-31 renal
XF 498 CNS = test system: XF 498 CNS

Q: With `O=[Se]([O-])c1ccccc1.O=[Se]([O-])c1ccccc1.[OH3+].[OH3+].[Pt+2]` as the compound, how does the GI50 (A498 renal) read?
A: 16.5 µM

Q: What about the TGI (A498 renal) of the same compound?
A: > 48.8 µM

Q: And the GI50 (A549 NSCLC)?
A: 12.2 µM

Q: And the TGI (A549 NSCLC)?
A: 58.8 µM

Q: What about the GI50 (CAKI-1 renal) of the same compound?
A: 11 µM

Q: And the TGI (CAKI-1 renal)?
A: > 26.4 µM

Q: What about the GI50 (CCRF-CEM leukemia) of the same compound?
A: 3.15 µM

Q: What about the TGI (CCRF-CEM leukemia) of the same compound?
A: > 35.9 µM

Q: And the GI50 (COLO 205 colon)?
A: 6.78 µM

Q: And the TGI (COLO 205 colon)?
A: 18.4 µM

Q: What about the GI50 (DLD-1 colon) of the same compound?
A: 4.85 µM

Q: What about the TGI (DLD-1 colon) of the same compound?
A: 24.3 µM

Q: And the GI50 (DMS 114 small cell lung)?
A: 3.73 µM

Q: What about the TGI (DMS 114 small cell lung) of the same compound?
A: 20.8 µM

Q: And the GI50 (DMS 273 small cell lung)?
A: 14.6 µM

Q: And the TGI (DMS 273 small cell lung)?
A: 36 µM

Q: And the GI50 (EKVX NSCLC)?
A: 6.34 µM

Q: What about the TGI (EKVX NSCLC) of the same compound?
A: 26 µM

Q: What about the GI50 (HCC-2998 colon) of the same compound?
A: 16.6 µM

Q: And the TGI (HCC-2998 colon)?
A: 55.9 µM

Q: What about the GI50 (HCT-116 colon) of the same compound?
A: 3.14 µM

Q: And the TGI (HCT-116 colon)?
A: 9.5 µM

Q: And the GI50 (HCT-15 colon)?
A: 6.02 µM

Q: What about the TGI (HCT-15 colon) of the same compound?
A: 28.6 µM

Q: And the GI50 (HL-60(TB) leukemia)?
A: 2190 nM

Q: And the TGI (HL-60(TB) leukemia)?
A: 5.66 µM

Q: What about the GI50 (HOP-18 NSCLC) of the same compound?
A: 15.1 µM

Q: And the TGI (HOP-18 NSCLC)?
A: 60.6 µM

Q: What about the GI50 (HOP-62 NSCLC) of the same compound?
A: 18.5 µM

Q: And the TGI (HOP-62 NSCLC)?
A: 31.2 µM

Q: And the GI50 (HOP-92 NSCLC)?
A: 14.4 µM

Q: And the TGI (HOP-92 NSCLC)?
A: 40.7 µM

Q: What about the GI50 (HT29 colon) of the same compound?
A: 3.09 µM

Q: What about the TGI (HT29 colon) of the same compound?
A: 14.6 µM

Q: What about the GI50 (IGROV1 ovarian) of the same compound?
A: 9.02 µM

Q: What about the TGI (IGROV1 ovarian) of the same compound?
A: > 42 µM

Q: What about the GI50 (K-562 leukemia) of the same compound?
A: 10 µM

Q: What about the TGI (K-562 leukemia) of the same compound?
A: 34.6 µM

Q: What about the GI50 (KM12 colon) of the same compound?
A: 3.41 µM

Q: And the TGI (KM12 colon)?
A: 25 µM

Q: What about the GI50 (KM20L2 colon) of the same compound?
A: 8.88 µM

Q: What about the TGI (KM20L2 colon) of the same compound?
A: 35.1 µM

Q: And the GI50 (LOX IMVI melanoma)?
A: 3.42 µM

Q: And the TGI (LOX IMVI melanoma)?
A: 19.2 µM

Q: What about the GI50 (M19-MEL melanoma) of the same compound?
A: 8.43 µM

Q: What about the TGI (M19-MEL melanoma) of the same compound?
A: 44.8 µM

Q: And the GI50 (MALME-3M melanoma)?
A: 16.5 µM

Q: What about the TGI (MALME-3M melanoma) of the same compound?
A: 54.2 µM

Q: And the GI50 (MCF7 breast)?
A: 6.42 µM

Q: And the TGI (MCF7 breast)?
A: 37.2 µM

Q: What about the GI50 (MOLT-4 leukemia) of the same compound?
A: 3.62 µM

Q: What about the TGI (MOLT-4 leukemia) of the same compound?
A: > 42.4 µM

Q: What about the GI50 (NCI-H226 lung) of the same compound?
A: 12.9 µM

Q: And the TGI (NCI-H226 lung)?
A: 52.5 µM

Q: And the GI50 (NCI-H23 lung)?
A: 7.01 µM

Q: What about the TGI (NCI-H23 lung) of the same compound?
A: 88.4 µM

Q: And the GI50 (NCI-H460 lung)?
A: 18.6 µM

Q: And the TGI (NCI-H460 lung)?
A: > 86.1 µM

Q: And the GI50 (NCI-H522 lung)?
A: 2510 nM

Q: And the TGI (NCI-H522 lung)?
A: 13.4 µM

Q: And the GI50 (NCI/ADR-RES ovarian)?
A: 2800 nM

Q: What about the TGI (NCI/ADR-RES ovarian) of the same compound?
A: 9.89 µM

Q: And the GI50 (OVCAR-3 ovarian)?
A: 7.91 µM

Q: What about the TGI (OVCAR-3 ovarian) of the same compound?
A: 32.8 µM

Q: And the GI50 (OVCAR-4 ovarian)?
A: 2150 nM

Q: And the TGI (OVCAR-4 ovarian)?
A: 10.3 µM

Q: What about the GI50 (OVCAR-5 ovarian) of the same compound?
A: 15.5 µM

Q: And the TGI (OVCAR-5 ovarian)?
A: 39.1 µM

Q: What about the GI50 (OVCAR-8 ovarian) of the same compound?
A: 3.03 µM

Q: And the TGI (OVCAR-8 ovarian)?
A: 20.2 µM

Q: What about the GI50 (P388 leukemia) of the same compound?
A: 1840 nM

Q: What about the TGI (P388 leukemia) of the same compound?
A: 5.67 µM

Q: What about the GI50 (P388/ADR leukemia) of the same compound?
A: 2120 nM

Q: And the TGI (P388/ADR leukemia)?
A: 11.8 µM

Q: What about the GI50 (RPMI-8226 leukemia) of the same compound?
A: 5.41 µM

Q: And the TGI (RPMI-8226 leukemia)?
A: 39.7 µM

Q: And the GI50 (RXF 393 renal)?
A: 22.7 µM

Q: What about the TGI (RXF 393 renal) of the same compound?
A: 40.6 µM

Q: What about the GI50 (SF-268 CNS) of the same compound?
A: 6.37 µM

Q: And the TGI (SF-268 CNS)?
A: 18.2 µM

Q: And the GI50 (SF-295 CNS)?
A: 3.42 µM

Q: What about the TGI (SF-295 CNS) of the same compound?
A: 16.9 µM

Q: And the GI50 (SF-539 CNS)?
A: 10.6 µM

Q: What about the TGI (SF-539 CNS) of the same compound?
A: 44.2 µM

Q: What about the GI50 (SK-MEL-2 melanoma) of the same compound?
A: 12.7 µM

Q: And the TGI (SK-MEL-2 melanoma)?
A: 35.5 µM

Q: What about the GI50 (SK-MEL-28 melanoma) of the same compound?
A: 10.8 µM

Q: What about the TGI (SK-MEL-28 melanoma) of the same compound?
A: 36.1 µM

Q: What about the GI50 (SK-MEL-5 melanoma) of the same compound?
A: 13.9 µM

Q: What about the TGI (SK-MEL-5 melanoma) of the same compound?
A: 30.5 µM

Q: What about the GI50 (SK-OV-3 ovarian) of the same compound?
A: 56.6 µM

Q: And the TGI (SK-OV-3 ovarian)?
A: > 100 µM

Q: And the GI50 (SN12C renal)?
A: 9.71 µM

Q: And the TGI (SN12C renal)?
A: 53.3 µM

Q: What about the GI50 (SN12K1 renal) of the same compound?
A: 4.5 µM

Q: What about the TGI (SN12K1 renal) of the same compound?
A: 15 µM

Q: What about the GI50 (SNB-19 CNS) of the same compound?
A: 10.9 µM

Q: What about the TGI (SNB-19 CNS) of the same compound?
A: 33.7 µM

Q: And the GI50 (SNB-75 CNS)?
A: 6.17 µM

Q: What about the TGI (SNB-75 CNS) of the same compound?
A: 33.8 µM

Q: And the GI50 (SNB-78 CNS)?
A: 15.3 µM

Q: And the TGI (SNB-78 CNS)?
A: 37.5 µM

Q: And the GI50 (SW-620 colon)?
A: 5.24 µM

Q: What about the TGI (SW-620 colon) of the same compound?
A: 25.2 µM

Q: What about the GI50 (U251 CNS) of the same compound?
A: 9.51 µM

Q: And the TGI (U251 CNS)?
A: 17.2 µM

Q: And the GI50 (UACC-257 melanoma)?
A: 2960 nM

Q: What about the TGI (UACC-257 melanoma) of the same compound?
A: 11.8 µM

Q: What about the GI50 (UACC-62 melanoma) of the same compound?
A: 13.1 µM

Q: What about the TGI (UACC-62 melanoma) of the same compound?
A: 55.6 µM

Q: What about the GI50 (UO-31 renal) of the same compound?
A: 5.78 µM

Q: What about the TGI (UO-31 renal) of the same compound?
A: 46.2 µM

Q: What about the GI50 (XF 498 CNS) of the same compound?
A: 7.72 µM

Q: What about the TGI (XF 498 CNS) of the same compound?
A: 26.2 µM

From PubChem BioAssay (NCI)
